Experimental data reported in article PMC5384001 (Scientific Reports, 2017).

Experiments:
[1] = biological target: T1, GluN1-1a-(H)GluD2 with GluN2A (Rattus norvegicus, UniProt P35439, E751N/F753V/F754A/G537S/L752T/Q536Y/R755D/S756R/T749V/Y535D); test: Two-electrode voltage clamp in Xenopus oocytes, current response; format: cell-based; details: 100 μM glutamate plus 1 mM D-serine, n = 23
T1 construct: expressed in transfected cells; host or cells: Xenopus laevis oocytes injected with cRNA
Protocol: (§1) Oocytes were obtained by surgically removing parts of the ovaries from Xenopus laevis (Nasco, Fort Atkinson, WI, USA) anaesthetised with 1.5 g/L 3-aminobenzoic acid ethylester (Sigma, Taufkirchen, Germany). The ovary clippings were digested with 784 U/mL (4 mg/mL) collagenase type I (Worthington, Lakewood, NJ, USA) in Ca^2+-free Barth’s solution (88 mM NaCl, 1.1 mM KCl, 2.4 mM NaHCO3, 0.8 mM MgSO4, 15 mM HEPES-NaOH, pH 7.6) with gentle agitation for 1.5–2 h at 20 °C to remove the follicular cell layer. After stopping the collagenase digestion by washing with Barth’s solution (88 mM NaCl, 1.1 mM KCl, 2.4 mM NaHCO3, 0.3 mM Ca(NO3)2, 0.4 mM CaCl2, 0.8 mM MgSO4, 15 mM HEPES-NaOH, pH 7.6), defolliculated oocytes of stages V and VI were selected and maintained at 16 °C in Barth’s solution supplemented with 100 μg/mL gentamicin, 40 μg/mL streptomycin, and 63 μg/mL penicillin. Oocytes were injected with 11 ng cRNA (10 ng of each cRNA for co-expression of GluN1 and GluN2A) using a nanoliter injector (WPI, Sarasota, FL, USA). Four days after cRNA injection, current responses were recorded under voltage clamp at –70 mV with a Turbo Tec-10CD amplifier (npi electronic, Tamm, Germany) controlled by Patchmaster software (HEKA, Lambrecht, Germany). Currents were filtered with a 20 Hz low-pass filter and then digitised with a sampling rate of 50 Hz. Recording electrodes were pulled from borosilicate glass (Hilgenberg, Malsfeld, Germany) with an L/M-3P-A vertical pipette puller (List-Medical), filled with 3 M KCl, and had resistances of 0.5–5 MΩ (voltage electrode) or 0.5–1.5 MΩ (current electrode). Recordings were performed in a 50 μL chamber under constant superfusion with extracellular solution at a flow rate of 3–5 mL/min. […] Finally, Ba-NFR and then NMDGR were applied again to check for reversibility.

GluD2-(H)GluN1 = biological target: T2, GluD2-(H)GluN1 (Rattus norvegicus, UniProt Q63226, A766F/D542Y/D767R/N763E/R768S/S544G/T764L/V761T/V765F/Y543Q); test: as above; format: cell-based
T2 construct: have an effect on the function of full-length receptors as well; expressed in transfected cells; host or cells: Xenopus laevis oocytes injected with cRNA
T2 sequence (Q63226 24-1007 D542Y/Y543Q/S544G/V761T/N763E/T764L/V765F/A766F/D767R/R768S): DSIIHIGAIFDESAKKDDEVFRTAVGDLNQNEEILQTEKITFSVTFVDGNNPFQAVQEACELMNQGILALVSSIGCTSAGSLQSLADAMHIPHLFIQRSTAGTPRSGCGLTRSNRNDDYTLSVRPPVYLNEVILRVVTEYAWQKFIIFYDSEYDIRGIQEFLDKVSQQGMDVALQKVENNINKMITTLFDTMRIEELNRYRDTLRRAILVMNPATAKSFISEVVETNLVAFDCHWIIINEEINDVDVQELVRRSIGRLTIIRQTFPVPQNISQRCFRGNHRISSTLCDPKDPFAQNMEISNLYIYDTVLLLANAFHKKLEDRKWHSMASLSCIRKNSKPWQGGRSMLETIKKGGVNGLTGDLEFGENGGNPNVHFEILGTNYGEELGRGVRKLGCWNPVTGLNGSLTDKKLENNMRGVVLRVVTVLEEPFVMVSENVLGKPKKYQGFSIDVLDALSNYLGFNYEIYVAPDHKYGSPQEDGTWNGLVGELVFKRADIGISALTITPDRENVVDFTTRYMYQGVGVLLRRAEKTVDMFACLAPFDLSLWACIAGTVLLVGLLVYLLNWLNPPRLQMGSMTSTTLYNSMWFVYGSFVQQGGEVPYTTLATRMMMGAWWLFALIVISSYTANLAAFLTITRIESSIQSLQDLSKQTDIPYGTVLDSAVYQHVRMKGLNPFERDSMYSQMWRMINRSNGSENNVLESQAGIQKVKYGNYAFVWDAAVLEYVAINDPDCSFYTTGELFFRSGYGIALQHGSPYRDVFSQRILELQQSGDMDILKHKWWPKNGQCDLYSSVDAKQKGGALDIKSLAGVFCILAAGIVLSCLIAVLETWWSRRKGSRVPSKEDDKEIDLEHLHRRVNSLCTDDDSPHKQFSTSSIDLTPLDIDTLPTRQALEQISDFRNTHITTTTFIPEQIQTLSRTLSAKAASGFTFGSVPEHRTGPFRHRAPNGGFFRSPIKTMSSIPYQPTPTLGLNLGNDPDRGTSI
Protocol: as §1

Work on `N[C@H](CO)C(=O)O` [D-serine] yielded a current response [1] of 5.8 ± 1.0 nA, a current response (GluD2-(H)GluN1; 10 μM D-serine, n = 14) of 1.1 ± 0.6 nA and a current response (GluD2-(H)GluN1; 1 mM D-serine, n = 22) of 2.3 ± 0.4 nA.
